The source of these data is patent US10921327B2, “Probes for quantitative imaging of thiols in various environments” (Baylor College of Medicine, priority 2014, dated 2021).

The nature of series [1]: Log D in octanol-PBS (pH 7.4) biphasic system. To be noted: octanol-PBS pH 7.4, read-out: Log D (pH = 7.4). It counts as physicochemical. From the text: To further understand TQ Green distribution between hydrophobic and hydrophilic environments, Applicants measured the Log D values of TQ Green and TQ Green-GSH using an octanol-PBS (pH 7.4) biphasic system (Table 2). […] In addition, Applicants discovered that the absorbance maximum of TQ Green shifts from 480 nm to 455 nm when changing the solvents from PBS to octanol. Applicants hypothesize that if TQ Green is distributed in lipid membranes, the absorbance maximum and fluorescence intensity will change. […] Consistent with the Log D measurements, this experiment also supports the hypothesis that TQ Green accumulates in lipid membranes. Considering the high quantum yield of TQ Green in hydrophobic solvents, lipid enrichment of TQ Green seemingly complicates intracellular GSH quantification. […] However, the Kd′ values may be different under calibration conditions and inside cells, which may introduce a systemic error.

Series [2] is described as follows: UV-Vis absorption, fluorescence and quantum yield. To be noted: for Quantum Yield (PBS): λex = 479 nm (TQ Green), 406 nm (TQ Green-GSH); for Quantum Yield (Methanol): Rhodamine 123 as standard. It counts as physicochemical. From the text: TQ Green absorbs at 479 nm and fluoresces at 590 nm (λex=488 nm, FIG. 3). The extinction coefficients of TQ Green and TQ Green-GSH at their maximum absorption wavelengths are (2.3±0.2)×10^4 M^−1·cm^−1 (a, =479 nm, Table 2) and (1.6±0.2)×10^4 M^−1·cm^−1 (λmax=407 nm, Table 1), respectively. Upon reacting with GSH, the Abs and Fl peaks shift hypsochromically to 406 and 463 nm (λex=405 nm), respectively. The Abs of TQ Green and TQ Green-GSH (the adduct between TQ Green and GSH) are close to 488 and 405 nm, respectively, which are two commonly used laser wavelengths for confocal microscopes. […]
NMR spectra were recorded on a Varian NMR (^1H at 400 MHz) spectrometer. Chemical shifts (δ) were given in ppm with reference to solvent signals [^1H NMR: CDCl3 (7.26), CD3OD (3.31)]. UV-Vis measurements were performed with 2×10 mm quartz cuvette in Cary 60 UV-is Spectrometer. Fluorescence measurements were performed with the same quartz cuvette in Cary Eclipse Fluorescence Spectrophotometer with an excitation slit of 5 nm, an emission slit of 10 nm and PMT at 650 V. Flash chromatography was performed on a Teledyne ISCO CombiFlashRf200. Olympus FV1000 laser scanning confocal microscope system was used for cell imaging. ESI mass spectrometry was measured on a BrukerMS microTOF ESI, at the Shared Equipment Authority at Rice University. Flow cytometry was performed on BD LSR II Flow Cytometer at BCM core facilities.
As summarized in Table 5, quantum yields of synthesized GSH probes and a GSH adduct with Rhodamine 123 as the standard were analyzed. Quantum yields were determined using a comparative method described previously. The bromine atom on the phenyl ring potentially enhances the push-pull effect of the coumarin-based fluorophore, thus increases the quantum yield.

Another series deals with BSA (Bos taurus, UniProt P02769). Description: Reaction specificity of TQ Green: BSA. The arrangement: species or system bovine. To be noted: 5 mM BSA, PBS pH 7.4. The procedure: (§1) For clarity, data points for TQ Green reaction with BSA, Cysteine, and PBS were offset by 0.1 units from each other on the y axis. Data points represent the absorbance of reaction mixtures of TQ Green (32 μM) with cysteine (100 μM, blue), BSA (5 mM, green), GSH (20 mM red) and water (black) in PBS (pH 7.4) at 480 nm, the maximum absorption wavelength for TQ Green.
Sequence of BSA (P02769 25-607): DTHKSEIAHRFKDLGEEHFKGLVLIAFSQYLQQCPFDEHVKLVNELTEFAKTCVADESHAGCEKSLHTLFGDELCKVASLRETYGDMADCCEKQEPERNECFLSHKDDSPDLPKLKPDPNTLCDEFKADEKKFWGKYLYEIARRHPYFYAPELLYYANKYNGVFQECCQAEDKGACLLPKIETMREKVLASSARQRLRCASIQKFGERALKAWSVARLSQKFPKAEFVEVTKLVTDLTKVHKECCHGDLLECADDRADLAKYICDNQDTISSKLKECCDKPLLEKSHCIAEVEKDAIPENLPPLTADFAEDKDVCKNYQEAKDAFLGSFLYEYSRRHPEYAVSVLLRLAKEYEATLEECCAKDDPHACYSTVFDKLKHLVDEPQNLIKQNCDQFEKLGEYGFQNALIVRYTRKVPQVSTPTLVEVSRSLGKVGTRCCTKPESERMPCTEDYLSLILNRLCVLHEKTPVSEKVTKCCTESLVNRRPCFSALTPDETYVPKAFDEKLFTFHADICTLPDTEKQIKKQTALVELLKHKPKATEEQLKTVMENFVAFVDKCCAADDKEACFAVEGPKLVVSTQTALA
Proteins containing free thiol groups may also react with TQ Green to affect the measurement of GSH levels. On average, the protein concentration inside cells is 3×10^6 molecules/μm^3, which corresponds to a concentration of 5 mM. Assuming there is one free thiol on each protein molecule, 5 mM of bovine serum albumin (BSA) solution should reasonably mimic intracellular proteins because a) BSA has a free thiol on its surface; and b) the molecular weight of BSA (65 kDa) is close to the average molecular weight of intracellular proteins (˜50 kDa). […] Through these experiments and analyses, Applicants can conclude that TQ Green has good specificity towards GSH under physiological conditions.

The nature of series [3]: Reaction kinetics and reversibility of probe with GSH (UV-Vis). As for the experimental part: The reaction between TQ Green and GSH is reversible.
The second-order rate constant between TQ Green and GSH is 0.150±0.001M^−1·s^−1. There were no appreciable Abs changes observed after 20 minutes. Following a pause for another 80 minutes to ensure that the equilibrium between TQ Green and GSH was fully established, Applicants added two equivalents of an irreversible Michael acceptor (5,6-dihydro-2H-pyran-2-one) to deplete all the GSH in solution (FIG. 4A).
GSH in PBS was added to a solution of TQ Green in PBS buffer (10 mM, pH 7.4) containing 1% DMSO. The final concentrations of GSH and TQ Green were 10 mM and 16 μM, respectively. The solutions were then monitored continuously with UV-Vis spectrometer (FIGS. 21A-D).

The nature of series [4]: Reaction specificity of TQ Green: cysteine. Conditions: 0.1 mM cysteine, within 2 hours, PBS pH 7.4. As for the experimental part: as §1
Free cysteine and the surface exposed cysteine residues on proteins inside cells could potentially compete with GSH in TQ Green reactions. It is known that, in contrast to the 1-10 mM concentrations of GSH inside cells, cysteine concentrations are in the range of 0.1-1 mM, approximately an order of magnitude lower than GSH levels. Assuming cysteine and GSH have similar reactivities, the presence of cysteine will introduce an error no more than 10%.

The subject of another series is cells. Briefly: Confocal imaging of probe interacting with cells (cell penetration). The class given is cell-based. The procedure:
FIG. 10 provides confocal images at 488 nm channel of TQ Green (acid form, FIG. 10A), and TQ Green-AM (ester form, FIG. 10B) interacting with cells.
All cell lines used in this study were purchased from American Type Culture Collection (ATCC) and grown in DMEM (Gibco, 11965) media supplemented with 10% FBS and 1% 1003 Pen Strep (Gibco). Cells were cultured under a controlled atmosphere (37° C., 5% CO2). Glass dishes were used for cell culture due to confocal scanning requirements. Cells were treated with TQ Green-AM (20 nM-1 μM with 0.0025-1% DMSO in PBS) for 30 minutes, followed by two washing steps with tryptan blue and PBS prior to imaging. Fluorescent images were acquired with 405 nm laser/430-470 nm filter and 488 nm laser/575-620 nm filter. All the microscope settings were kept consistent in each experiment.

A further series can be described thus: Solubility. To be noted: PBS buffer, aqueous buffer. It counts as physicochemical.

Each structure is given as a SMILES string. “And” between values parts separate entries of the source, which are not always exact repeats. Equal entries are not always repeated. Some results are limits rather than exact numbers.

As to `CCN(CC)c1ccc2cc(/C=C/C(=O)c3ccc(C(=O)O)cc3Br)c(=O)oc2c1` [TQ Green], the logD in series [1] came out at 0.7. Moreover, the “Abs Max Wavelength” value in series [2] (PBS pH 7.4) is 479 nm and 480 nm. Further, in series [2] (PBS pH 7.4, λex = 488 nm (TQ Green), λex = 405 nm (TQ Green-GSH)), the “Fl Emission Max Wavelength” value is 590 nm. Further, the entries for the “Quantum Yield (PBS)” value in series [2] and in series [2] (listed as drawing 19) were 0.0094±0.0004 and 0.0094 ± 0.0004, respectively. Further, the “Quantum Yield (Methanol)” value in series [2] is recorded as 0.16±0.05; in series [2] (listed as drawing 18) it was 0.16 ± 0.05. Moreover, the “Absorbance maximum in octanol” value in series [2] (octanol) came out at 455 nm. In addition, the “Reaction with BSA” value at BSA was “little reaction”. The “Time to reach 95% of conversion” value in series [3] (10 mM GSH in PBS, room temperature, TQ Green 16 μM, probe 3a 10 μM) is ~30 min. Also, the “Time to establish equilibrium with GSH” value in series [3] (37° C., intracellular environment, extrapolated) is 15 to 30 min. The “Second-Order Rate Constant” value in series [3] (TQ Green and GSH) worked out at 0.150 ± 0.001 M⁻¹ s⁻¹. Besides, the Reaction with cysteine result in series [4] is on record as “did not observe appreciable reactions”. Also, in the series with cells, the “Cell penetration (confocal, 488 nm channel)” value is reported as “trapped in the membrane”. Besides, the solubility in “Solubility” is > 500 µM.
